Data reported in ChEMBL document CHEMBL1944578, “Synthesis and anticonvulsant activity of novel 2,6-diketopiperazine derivatives. Part 2: Perhydropyrido[1,2-a]pyrazines” (Eur J Med Chem, 2012).
Activity calls are given as the source filed them.

Key:
[1] = tested on: Mus musculus; test: Anticonvulsant activity in Carworth farms No.1 albino mouse assessed as protection against 6 Hz electric current-induced seizure at 100 mg/kg, ip measured after 4 hrs; assay type: functional, organism-based; design: dose 100 mg/kg
[2] = tested on: Mus musculus; test: Anticonvulsant activity in Carworth farms No.1 albino mouse assessed as protection against 6 Hz electric current-induced seizure at 100 mg/kg, ip measured after 1 hrs; assay type: functional, organism-based; design: dose 100 mg/kg
[3] = tested on: Mus musculus; test: Anticonvulsant activity in Carworth farms No.1 albino mouse assessed as protection against maximum electroshock at 100 mg/kg, ip measured after 4 hrs; assay type: functional, organism-based; design: dose 100 mg/kg
[4] = tested on: Mus musculus; test: Anticonvulsant activity in Carworth farms No.1 albino mouse assessed as protection against subcutaneous metrazole-induced seizures at 300 mg/kg, ip measured after 0.5 hrs; assay type: functional, organism-based; design: dose 300 mg/kg
[5] = tested on: Mus musculus; test: Neurotoxicity in Carworth farms No.1 albino mouse assessed as inability to grasp rotarod at 100 mg/kg, ip measured after 0.5 hr; assay type: toxicity, organism-based; design: dose 100 mg/kg, route intraperitoneal; conditions: in vivo
[6] = tested on: Rattus norvegicus; test: Anticonvulsant activity in Sprague-Dawley rat assessed as protection against maximum electroshock at 30 mg/kg, po measured after 1 hr; assay type: functional, organism-based; design: dose 30 mg/kg
[7] = tested on: Mus musculus; test: Neurotoxicity in Carworth farms No.1 albino mouse assessed as sedation at 300 mg/kg, ip measured after 4 hrs; assay type: toxicity, organism-based; design: dose 300 mg/kg, route intraperitoneal; conditions: in vivo
[8] = species: Mus musculus; test: Anticonvulsant activity in electric shock-induced Carworth farms No.1 albino mouse assessed as time of peak effect; assay type: functional
[9] = tested on: Mus musculus; test: Anticonvulsant activity in Carworth farms No.1 albino mouse assessed as protection against maximum electroshock at 300 mg/kg, ip measured after 0.5 hrs; assay type: functional, organism-based; design: dose 300 mg/kg
[10] = tested on: Rattus norvegicus; test: Neurotoxicity in Sprague-Dawley rat assessed as neurological impairment at 30 mg/kg, po measured after 2 hrs; assay type: toxicity, organism-based; design: dose 30 mg/kg, route oral; conditions: in vivo
[11] = tested on: Mus musculus; test: Anticonvulsant activity in Carworth farms No.1 albino mouse assessed as protection against subcutaneous metrazole-induced seizures at 100 mg/kg, ip measured after 4 hrs; assay type: functional, organism-based; design: dose 100 mg/kg
[12] = tested on: Mus musculus; test: Neurotoxicity in Carworth farms No.1 albino mouse assessed as neurological impairment at 100 mg/kg, ip measured after 1 hr; assay type: toxicity, organism-based; design: dose 100 mg/kg, route intraperitoneal; conditions: in vivo
[13] = tested on: Mus musculus; test: Anticonvulsant activity in Carworth farms No.1 albino mouse assessed as protection against subcutaneous metrazole-induced seizures at 300 mg/kg, ip measured after 4 hrs; assay type: functional, organism-based; design: dose 300 mg/kg
[14] = tested on: Rattus norvegicus; test: Neurotoxicity in Sprague-Dawley rat assessed as neurological impairment at 30 mg/kg, po measured after 0.5 hrs; assay type: toxicity, organism-based; design: dose 30 mg/kg, route oral; conditions: in vivo
[15] = tested on: Rattus norvegicus; test: Neurotoxicity in Sprague-Dawley rat assessed as neurological impairment at 30 mg/kg, po measured after 4 hrs; assay type: toxicity, organism-based; design: dose 30 mg/kg, route oral; conditions: in vivo
[16] = tested on: Rattus norvegicus; test: Neurotoxicity in Sprague-Dawley rat assessed as neurological impairment at 30 mg/kg, po measured after 0.25 hrs; assay type: toxicity, organism-based; design: dose 30 mg/kg, route oral; conditions: in vivo
[17] = tested on: Rattus norvegicus; test: Anticonvulsant activity in Sprague-Dawley rat assessed as protection against maximum electroshock at 30 mg/kg, po measured after 2 hrs; assay type: functional, organism-based; design: dose 30 mg/kg
[18] = tested on: Mus musculus; test: Anticonvulsant activity in Carworth farms No.1 albino mouse assessed as protection against subcutaneous metrazole-induced seizures at 30 mg/kg, ip measured after 0.5 hrs; assay type: functional, organism-based; design: dose 30 mg/kg
[19] = tested on: Mus musculus; test: Anticonvulsant activity in Carworth farms No.1 albino mouse assessed as protection against maximum electroshock at 30 mg/kg, ip measured after 4 hrs; assay type: functional, organism-based; design: dose 30 mg/kg
[20] = tested on: Mus musculus; test: Neurotoxicity in Carworth farms No.1 albino mouse assessed as inability to grasp rotarod at 100 mg/kg, ip measured after 0.25 hr; assay type: toxicity, organism-based; design: dose 100 mg/kg, route intraperitoneal; conditions: in vivo
[21] = tested on: Mus musculus; test: Anticonvulsant activity in Carworth farms No.1 albino mouse assessed as protection against maximum electroshock at 100 mg/kg, ip measured after 0.5 hrs; assay type: functional, organism-based; design: dose 100 mg/kg
[22] = tested on: Mus musculus; test: Neurotoxicity in Carworth farms No.1 albino mouse assessed as neurological impairment at 100 mg/kg, ip measured after 2 hr; assay type: toxicity, organism-based; design: dose 100 mg/kg, route intraperitoneal; conditions: in vivo
[23] = tested on: Mus musculus; test: Anticonvulsant activity in Carworth farms No.1 albino mouse assessed as protection against maximum electroshock at 30 mg/kg, ip measured after 0.5 hrs; assay type: functional, organism-based; design: dose 30 mg/kg
[24] = tested on: Mus musculus; test: Anticonvulsant activity in Carworth farms No.1 albino mouse assessed as protection against 6 Hz electric current-induced seizure at 100 mg/kg, ip measured after 0.25 hrs; assay type: functional, organism-based; design: dose 100 mg/kg
[25] = tested on: Mus musculus; test: Anticonvulsant activity in Carworth farms No.1 albino mouse assessed as protection against 6 Hz electric current-induced seizure at 100 mg/kg, ip measured after 2 hrs; assay type: functional, organism-based; design: dose 100 mg/kg
[26] = tested on: Rattus norvegicus; test: Anticonvulsant activity in Sprague-Dawley rat assessed as protection against maximum electroshock at 30 mg/kg, po measured after 0.25 hrs; assay type: functional, organism-based; design: dose 30 mg/kg
[27] = tested on: Mus musculus; test: Neurotoxicity in Carworth farms No.1 albino mouse assessed as neurological impairment at 100 mg/kg, ip measured after 4 hrs; assay type: toxicity, organism-based; design: dose 100 mg/kg, route intraperitoneal; conditions: in vivo
[28] = tested on: Mus musculus; test: Anticonvulsant activity in Carworth farms No.1 albino mouse assessed as protection against subcutaneous metrazole-induced seizures at 100 mg/kg, ip measured after 0.5 hrs; assay type: functional, organism-based; design: dose 100 mg/kg
[29] = tested on: Mus musculus; test: Anticonvulsant activity in ip dosed Carworth farms No.1 albino mouse assessed as protection against 6 Hz electric current-induced seizure measured after 0.25 hrs; assay type: functional
[30] = tested on: Mus musculus; test: Neurotoxicity in Carworth farms No.1 albino mouse assessed as neurological impairment at 30 mg/kg, ip measured after 4 hrs; assay type: toxicity, organism-based; design: dose 30 mg/kg, route intraperitoneal; conditions: in vivo
[31] = tested on: Rattus norvegicus; test: Anticonvulsant activity in Sprague-Dawley rat assessed as protection against maximum electroshock at 30 mg/kg, po measured after 4 hrs; assay type: functional, organism-based; design: dose 30 mg/kg
[32] = tested on: Mus musculus; test: Anticonvulsant activity in Carworth farms No.1 albino mouse assessed as protection against 6 Hz electric current-induced seizure at 100 mg/kg, ip measured after 0.5 hrs; assay type: functional, organism-based; design: dose 100 mg/kg
[33] = tested on: Mus musculus; test: Neurotoxicity in Carworth farms No.1 albino mouse assessed as neurological impairment at 30 mg/kg, ip measured after 0.5 hrs; assay type: toxicity, organism-based; design: dose 30 mg/kg, route intraperitoneal; conditions: in vivo
[34] = tested on: Mus musculus; test: Neurotoxicity in Carworth farms No.1 albino mouse assessed as neurological impairment at 100 mg/kg, ip measured after 0.5 hrs; assay type: toxicity, organism-based; design: dose 100 mg/kg, route intraperitoneal; conditions: in vivo
[35] = tested on: Rattus norvegicus; test: Neurotoxicity in Sprague-Dawley rat assessed as neurological impairment at 30 mg/kg, po measured after 1 hr; assay type: toxicity, organism-based; design: dose 30 mg/kg, route oral; conditions: in vivo
[36] = tested on: Mus musculus; test: Anticonvulsant activity in Carworth farms No.1 albino mouse assessed as protection against subcutaneous metrazole-induced seizures at 30 mg/kg, ip measured after 4 hrs; assay type: functional, organism-based; design: dose 30 mg/kg
[37] = tested on: Mus musculus; test: Anticonvulsant activity in Carworth farms No.1 albino mouse assessed as protection against maximum electroshock at 300 mg/kg, ip measured after 4 hrs; assay type: functional, organism-based; design: dose 300 mg/kg
[38] = tested on: Rattus norvegicus; test: Anticonvulsant activity in Sprague-Dawley rat assessed as protection against maximum electroshock at 30 mg/kg, po measured after 0.5 hrs; assay type: functional, organism-based; design: dose 30 mg/kg
[39] = tested on: Mus musculus; test: Neurotoxicity in Carworth farms No.1 albino mouse assessed as neurological impairment at 300 mg/kg, ip measured after 0.5 hrs; assay type: toxicity, organism-based; design: dose 300 mg/kg, route intraperitoneal; conditions: in vivo

O=C1NC(=O)[C@@H]2CCCCN2[C@H]1c1ccccc1
Toxic: Activity [5] | Activity [7] | Activity [20] | Activity [34] | Activity [39]
0.25 h: Time [8]
Non-toxic: Activity [10] | Activity [12] | Activity [14] | Activity [15] | Activity [16] | Activity [22] | Activity [27] | Activity [30] | Activity [33] | Activity [35]
27.2 mg/kg: ED50 [29]
active: Activity [2] | Activity [4] | Activity [9] | Activity [13] | Activity [21] | Activity [24] | Activity [25] | Activity [28] | Activity [31] | Activity [32] | Activity [37]
inactive: Activity [1] | Activity [3] | Activity [6] | Activity [11] | Activity [17] | Activity [18] | Activity [19] | Activity [23] | Activity [26] | Activity [36] | Activity [38]
